These results are taken from US8137509B2, “Asymmetric synthesis of rocaglamides via enantioselective photocycloaddition mediated by chiral brønsted acids” (Trustees of Boston University, priority 2006, dated 2012).

In series [1] the test system is human cancer cells. As to conditions: compared with TAXOL; cited from earlier work.

On to `COC(=O)C1C(c2ccccc2)[C@]2(c3ccc(OC)cc3)Oc3cc(OC)cc(OC)c3[C@@]1(O)C2=O` (some centres unmarked), for which the melting point (usually the temperature, or range, at which the solid turns liquid) is 83 to 85 °C. For the compound `COC(=O)[C@H]1[C@@H](O)[C@@]2(O)c3c(OC)cc(O[C@@H]4O[C@@H]([C@H](O)CO)CO[C@H]4OC)cc3O[C@@]2(c2ccc(OC)cc2)[C@@H]1c1ccccc1` [silvestrol B, silvestrol], the cytotoxic activity result in series [1] is “comparable to the anticancer drug TAXOL®”.
